In PubChem BioAssay (NCI):
“And” between values parts separate entries of the source, which are not always exact repeats. Equal entries are not always repeated.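 Results reflect a 48-hour exposure of cells in 96-well plates to compound at five concentrations. Abbreviation: GI50, concentration required for 50% inhibition of growth. Definition used: TGI = concentration required for complete inhibition of growth.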

What was measured:
Experiment in all cases: inhibition of tumour cell growth, NCI panel, 48 h
UO-31 renal = tested on: UO-31 renal
TK-10 renal = tested on: TK-10 renal
HOP-92 NSCLC = tested on: HOP-92 NSCLC
SK-MEL-2 melanoma = tested on: SK-MEL-2 melanoma
CCRF-CEM leukemia = tested on: CCRF-CEM leukemia
NCI-H522 lung = tested on: NCI-H522 lung
T-47D breast = tested on: T-47D breast
HS 578T breast = tested on: HS 578T breast

N#Cc1c(N)nc(N2CCOCC2)c(C#N)c1-c1ccccn1
GI50 (UO-31 renal): > 100 µM
TGI (UO-31 renal): > 100 µM
GI50 (TK-10 renal): > 100 µM
TGI (TK-10 renal): > 100 µM
GI50 (HOP-92 NSCLC): > 52.8 µM
TGI (HOP-92 NSCLC): > 100 µM
GI50 (SK-MEL-2 melanoma): > 100 µM
TGI (SK-MEL-2 melanoma): > 100 µM
GI50 (CCRF-CEM leukemia): > 100 µM
TGI (CCRF-CEM leukemia): > 100 µM
GI50 (NCI-H522 lung): > 100 µM
TGI (NCI-H522 lung): > 100 µM
GI50 (T-47D breast): 48.4 µM
TGI (T-47D breast): > 100 µM
GI50 (HS 578T breast): > 100 µM
TGI (HS 578T breast): > 100 µM

CC(=O)c1c(CO[N+](=O)[O-])n([O-])c2ccccc2[n+]1=O
TGI (UO-31 renal): > 100 µM
TGI (TK-10 renal): > 100 µM
TGI (HOP-92 NSCLC): > 100 µM
TGI (SK-MEL-2 melanoma): > 100 µM
TGI (CCRF-CEM leukemia): > 100 µM
TGI (NCI-H522 lung): > 100 µM
TGI (T-47D breast): > 100 µM
TGI (HS 578T breast): > 100 µM

C/C(=C\c1cc(C(F)(F)F)n(-c2ccc(N)cc2)n1)[C@@H]1C[C@@H]2O[C@]2(C)CCC[C@H](C)[C@H](O)[C@@H](C)C(=O)C(C)(C)[C@@H](O)CC(=O)O1
GI50 (UO-31 renal): 0.0791 µM
TGI (UO-31 renal): > 11.1 µM
GI50 (TK-10 renal): 0.0578 µM
TGI (TK-10 renal): 7.95 µM
GI50 (HOP-92 NSCLC): 0.258 µM
TGI (HOP-92 NSCLC): > 11.1 µM
GI50 (SK-MEL-2 melanoma): 0.0295 µM
TGI (SK-MEL-2 melanoma): 0.382 µM
GI50 (CCRF-CEM leukemia): 0.0421 µM
TGI (CCRF-CEM leukemia): > 11.1 µM
GI50 (NCI-H522 lung): 0.0233 µM
TGI (NCI-H522 lung): 0.0839 µM
GI50 (T-47D breast): 0.0542 µM
TGI (T-47D breast): > 11.1 µM
GI50 (HS 578T breast): 0.0287 µM
TGI (HS 578T breast): 0.627 µM

O=C(N/N=C/c1ccc(O)cc1O)c1cccc(Nc2ccnc(C(F)(F)F)c2)c1
GI50 (UO-31 renal): 1.44 µM
TGI (UO-31 renal): 33.6 µM
GI50 (TK-10 renal): 2.98 µM
TGI (TK-10 renal): 37.3 µM
GI50 (HOP-92 NSCLC): 3.44 µM
TGI (HOP-92 NSCLC): > 48.2 µM
GI50 (SK-MEL-2 melanoma): 7.39 µM
TGI (SK-MEL-2 melanoma): 27.1 µM
GI50 (CCRF-CEM leukemia): 0.257 µM
TGI (CCRF-CEM leukemia): 2.14 µM
GI50 (NCI-H522 lung): 1.27 µM
TGI (NCI-H522 lung): 22.6 µM
GI50 (T-47D breast): 0.66 µM
TGI (T-47D breast): 15.6 µM
GI50 (HS 578T breast): 7.71 µM
TGI (HS 578T breast): 46.7 µM

O=C(NO)[C@@H](Cc1ccccc1)NS(=O)(=O)c1ccc(-c2ccccc2)cc1
GI50 (UO-31 renal): 13.2 µM
TGI (UO-31 renal): > 25 µM
GI50 (TK-10 renal): 19.1 µM
TGI (TK-10 renal): > 25 µM
GI50 (HOP-92 NSCLC): 4.7 µM
TGI (HOP-92 NSCLC): 20.9 µM
GI50 (SK-MEL-2 melanoma): > 25 µM
TGI (SK-MEL-2 melanoma): > 25 µM
GI50 (CCRF-CEM leukemia): > 25 µM
TGI (CCRF-CEM leukemia): > 25 µM
GI50 (NCI-H522 lung): > 25 µM
TGI (NCI-H522 lung): > 25 µM
GI50 (T-47D breast): > 25 µM
TGI (T-47D breast): > 25 µM
GI50 (HS 578T breast): > 25 µM
TGI (HS 578T breast): > 25 µM

Cc1cc2c(C(N)=O)c(N)n(-c3c(C)ccc(O)c3C)c2nc1C
GI50 (UO-31 renal): 3.18 µM
TGI (UO-31 renal): 14.9 µM
GI50 (TK-10 renal): 4.11 µM
TGI (TK-10 renal): 23.9 µM
GI50 (HOP-92 NSCLC): 1 µM
TGI (HOP-92 NSCLC): 14.1 µM
GI50 (SK-MEL-2 melanoma): 3.59 µM
TGI (SK-MEL-2 melanoma): 21.2 µM
GI50 (CCRF-CEM leukemia): 2.65 µM
TGI (CCRF-CEM leukemia): > 100 µM
GI50 (NCI-H522 lung): 1.48 µM
TGI (NCI-H522 lung): 5.09 µM
GI50 (T-47D breast): 6.68 µM
TGI (T-47D breast): > 100 µM
GI50 (HS 578T breast): 1.44 µM
TGI (HS 578T breast): 7.18 µM

COc1cc2nccc(Oc3ccc(NC(=O)Nc4cc(C)on4)c(Cl)c3)c2cc1OC
GI50 (UO-31 renal): 1.88 µM and 2.5 µM
TGI (UO-31 renal): 5.76 µM and > 10 µM
GI50 (TK-10 renal): 3.42 µM and 3.9 µM
TGI (TK-10 renal): 13.2 µM and > 10 µM
GI50 (HOP-92 NSCLC): 2.58 µM and 0.911 µM
TGI (HOP-92 NSCLC): 6.27 µM and 3.44 µM
GI50 (SK-MEL-2 melanoma): 3.56 µM and 3.33 µM
TGI (SK-MEL-2 melanoma): 10.4 µM and > 10 µM
GI50 (CCRF-CEM leukemia): 3.1 µM
TGI (CCRF-CEM leukemia): > 100 µM
GI50 (NCI-H522 lung): 3.47 µM and 3.14 µM
TGI (NCI-H522 lung): 32.9 µM and > 10 µM
GI50 (T-47D breast): 2.98 µM and 3.35 µM
TGI (T-47D breast): 23.2 µM and > 10 µM
GI50 (HS 578T breast): 1.48 µM and 1.54 µM
TGI (HS 578T breast): 5.78 µM and > 10 µM

Cc1ccc(NC(=O)CSc2nnc3n(Cc4ccccc4)c(=O)c4c(C)c(C(N)=O)sc4n23)cc1
GI50 (UO-31 renal): > 100 µM
TGI (UO-31 renal): > 100 µM
GI50 (TK-10 renal): 13.7 µM
TGI (TK-10 renal): 34 µM
GI50 (HOP-92 NSCLC): 2.57 µM
TGI (HOP-92 NSCLC): 12.2 µM
GI50 (SK-MEL-2 melanoma): 16 µM
TGI (SK-MEL-2 melanoma): 43.3 µM
GI50 (CCRF-CEM leukemia): 20.1 µM
TGI (CCRF-CEM leukemia): 46.1 µM
GI50 (NCI-H522 lung): 3.85 µM
TGI (NCI-H522 lung): > 100 µM
GI50 (T-47D breast): 8.12 µM
TGI (T-47D breast): > 100 µM
GI50 (HS 578T breast): 5.22 µM
TGI (HS 578T breast): 77.6 µM
